Measured values published in patent publication US20250084096A1, “TERT-BUTYL (S)-2-(4-(PHENYL)-6H-THIENO[3, 2-F][1, 2, 4]TRIAZOLO[4, 3-A] [1,4]DIAZEPIN-6-YL) ACETATE DERIVATIVES AND RELATED COMPOUNDS AS BROMODOMAIN BRD4 INHIBITORS FOR TREATING CANCER” (Genentech, Inc., priority 2018, published 2025).

Columns and labels:
[1] = molecular target: BRD4_BD2 bromodomain (Homo sapiens (Human), UniProt O60885); assay: BRD4 BD2 biochemical binding assay (TR-FRET); conditions: displacement of biotinylated ligand Compound C
Description: (§1) The following assay was used to measure the IC50 for the test compounds ability to bind to the BRD4_BD1 and BRD4_BD2 bromodomains.
(§2) DMSO was backfilled to a final volume of 30 nL as required. […] 1× Assay Buffer was dispensed (5 μL per well) into Minimum Signal control wells. 5 μL of Solution A-3× was dispensed into test wells and Maximum Signal control wells (containing DMSO instead of test compound). Samples were incubated 10 minutes at room temperature. 5 μL of Solution B-3x was dispensed into all wells. Samples were incubated incubate for 10 minutes at room temperature. 5 μL of Solution C-3x was dispensed into all wells. Samples were incubated 40 minutes at room temperature. Plates were read using an Envision (Perkin Elmer) with the following settings: Detection—LANCE Dual Laser 50/200. […] Percentage inhibition was calculated relative to the Minimum Signal control and Maximum Signal control wells. IC50 values were derived by four parameter curve fitting using the Robust method.

[2] = tested on: MYC expression; assay: Myc mRNA assay in MV-4-11 cells; format: cell-based; conditions: for Maximum Inhibition (%) (mean) of MYC expression: 4 hours, QuantiGene 2.0; for IC50: Homo sapiens, MV4-11, 4 hours, QuantiGene 2.0, read-out: Inhibition of MYC expression Average IC50
Description: Pharmacologic inhibition of MYC is achievable through targeting BET bromodomains through small molecule binder or degrader mechanisms.
Test compounds diluted in DMSO were transferred to the cell plates, keeping final DMSO concentration consistent at 0.1%, and incubated for 4 hours at 37° C. […] Luminescence was read using an EnVision plate reader (PerkinElmer) and IC50s generated in Genedata Screener using a 4-parameter non-linear regression fit.

[3] = molecular target: BRD4_BD1 bromodomain (Homo sapiens (Human), UniProt O60885); assay: BRD4 BD1 biochemical binding assay (TR-FRET); conditions: displacement of biotinylated ligand Compound C
Description: as §1, §2

[4] = molecular target: T1, BRD4 (Homo sapiens (Human), UniProt O60885); assay: BRD4 degradation assay in PC3-Steap1 cells; format: cell-based
Description: 2 μL of each sample from the serial dilution was transferred to 98 μL of assay media as an intermediate dilution. 5 μL of intermediate dilution was added to 45 μL of cell plate. Columns 1, 2, 23 and 24 were treated with only 0.2% w/v final concentration of DMSO for data normalization as “neutral controls”. After compound treatment, cell plates were stored in a 37° C. incubator for 4 hours.
Cell plate was incubated at room temperature for 20 minutes. Well contents were aspirated and washed with 100 μL/well PBS 3 times. 50 μL/well of PBS containing 0.5% w/v bovine serum albumen, 0.5% w/v Triton X-100 (Antibody Dilution Buffer) was added to each well. Samples were incubated for 30 minutes. Well contents were aspirated and washed 3 times with 100 μL/well of PBS. PBS was aspirated from the wells.
25 μL per well of BRD4 antibody diluted in buffer was added and incubated overnight at 4° C. On day-3 samples were washed 3 times with 100 μL/well of PBS. […] Samples were incubated for 2 hours at room temperature. Samples were washed 3 times with 100 μL PBS.
(§3) Quantitative fluorescence imaging of BRD4 was carried out using an Opera Phenix High-Content Screening System. […] Hoechst channel was used to identify nuclear region. […] Data analysis was carried out using Genedata Screener, with DMSO and no primary antibody control treated samples being used to define the 0% and 100% changes in BRD4. The dose-response log(inhibitor) vs. response was used to define the inflexion point of curve (IC50) and the plateau of the maximal effect. The Sit value reports degradation as percent change in protein level, so complete loss of the protein target is −100%. Sinf is the maximum degradation achieved, obtained by determining the bottom of a dose-response (where the S-shaped curve levels out).

[5] = molecular target: T1, BRD4; assay: BRD4 degradation assay in EoL-1 cells; format: cell-based
Description: 2 μL of each sample from the serial dilution was transferred to 98 μL of assay media as an intermediate dilution. 5 μL of each well of the intermediate dilution was added to 45 μL of cell plate. Columns 1, 2, 23 and 24 were treated with only 0.2% final concentration of DMSO for data normalization as “neutral controls”. After compound treatment, cell plates were stored in a 37° C. incubator for 4 hours.
The cell plate was incubated at room temperature for 20 minutes. Well contents were aspirated and washed with 100 μL/well PBS 3 times. 50 μL/well of PBS (pH7.5) containing 0.5% w/v bovine serum albumen, 0.5% w/v Triton X-100 (Block/Permeabilzation Buffer) was added to each well. Samples were incubated for 20 minutes. Well contents were aspirated and washed 3 times with 100 μL/well of PBS. PBS was aspirated from the well and 50 μL per well of EoL-1 Block Buffer (PBS containing 10% Normal Goat Serum (Abcam #ab7481)) was added to each well. Plates were incubated at room temperature for 30 minutes. Block buffer was decanted from the wells.
25 μL per well of BRD4 antibody diluted in buffer was added and incubated overnight at 4° C. On day-2 samples were washed 3 times with 100 μL/well of PBS. […] Samples were incubated for 2 hours at room temperature. Samples were washed 3 times with 100 μL PBS.
as §3, with “Sinf” for “Sit”

[6] = 4 hours, immunofluorescence, read-out: Degradation of BRD4 Average EC50
[7] = read-out: Degradation of BRD4 Average EC50, 4 hours, immunofluorescence

Structure (SMILES) | IC50 [1] [nM] | Maximum Inhibition (%) (mean) of MYC expression [2] | IC50 [2] [nM] | IC50 [3] [nM] | Dmax ([4]; 4 hours, complete loss = −100%, read-out: Sinf (maximum degradation, percent change in protein level)) [%] | DC50 [4, 6] [nM] | DC50 [5, 6] [nM] | DC50 [4, 7] [nM] | DC50 [5, 7] [nM]
Cc1sc2c(c1C)C(c1ccc(C#CCN(C)C)cc1)=N[C@@H](CC(=O)OC(C)(C)C)c1nnc(C)n1-2 [Compound 3a, tert-butyl (S)-2-(4-(4-(3-(dimethylamino)prop-1-yn-1-yl)phenyl)-2,3,9-trimethyl-6H-thieno[3,2-f][1,2,4]triazolo[4,3-a][1,4]diazepin-6-yl)acetate] | 20.7 | 78.7 | 11.7 | 14.5 | -41.9 | > 20000 | > 20000 |  | 
CC(=O)NCC#Cc1ccc(C2=N[C@@H](CC(=O)OC(C)(C)C)c3nnc(C)n3-c3sc(C)c(C)c32)cc1 [Compound 10a, tert-butyl (S)-2-(4-(4-(3-acetamidoprop-1-yn-1-yl)phenyl)-2,3,9-trimethyl-6H-thieno[3,2-f][1,2,4]triazolo[4,3-a][1,4]diazepin-6-yl)acetate] | 10.7 | 79.3 | 7.1 | 6.6 |  | > 20000 | > 20000 |  | 
CCC#Cc1ccc(C2=N[C@@H](CC(=O)OC(C)(C)C)c3nnc(C)n3-c3sc(C)c(C)c32)cc1 [Compound 13a, tert-butyl (S)-2-(4-(4-(but-1-yn-1-yl)phenyl)-2,3,9-trimethyl-6H-thieno[3,2-f][1,2,4]triazolo[4,3-a][1,4]diazepin-6-yl)acetate] | 28.7 | 71.6 | 162 | 23.4 |  |  |  | > 20000 | > 20000
CC#Cc1ccc(C2=N[C@@H](CC(=O)OC(C)(C)C)c3nnc(C)n3-c3sc(C)c(C)c32)cc1 [Compound 14a, tert-butyl (S)-2-(2,3,9-trimethyl-4-(4-(prop-1-yn-1-yl)phenyl)-6H-thieno[3,2-f][1,2,4]triazolo[4,3-a][1,4]diazepin-6-yl)acetate] | 20.3 | 73.6 | 97.2 | 18.8 |  |  |  | > 20000 | > 20000
